Where “and” joins values, the source holds several entries; their conditions need not be identical. Equal entries are not always repeated. Square brackets hold non-standard residues; d marks the D form. Peptide text beside a SMILES is read from it. * marks the point of attachment. dPhe(4-NHCONH2) = NC(=O)Nc1ccc(C[C@@H](N)C(=O)O)cc1; Dihydroorotyl(S) = O=C1C[C@@H](C(=O)*)NC(=O)N1; dPhe(4-Cl) = N[C@H](Cc1ccc(Cl)cc1)C(=O)O; Phe(4-NH2) = Nc1ccc(C[C@H](N)C(=O)O)cc1; d2Nal = N[C@H](Cc1ccc2ccccc2c1)C(=O)O; Lys(iPr) = CC(C)NCCCC[C@H](N)C(=O)O; NMeY = CN[C@@H](Cc1ccc(O)cc1)C(=O)O; d3Pal = N[C@H](Cc1cccnc1)C(=O)O
Columns and labels:
[1] = system: bovine pituitary cells; assay: GnRH-induced LH secretion of bovine pituitary cells in vitro (Example 9); assay type: cell-based; conditions: for LH conc in medium: 300 μg cetrorelix, 340 μg Degarelix, 300 ug Abarelix, 130 μg Relugolix
Protocol: Methods: The heads of mature, non-pregnant cows (n=4) were collected from a local abattoir and the pituitary glands were dissected within 60 minutes of slaughter. Immediately following the dissection, the pituitaries were submerged into ice-cold collection medium. The pituitaries were washed 3 times in collection media and the neurohypophysis was dissected from the adenohypophysis. Using a scalpel, the adenohypophysis (anterior pituitary) was sliced into 1 mm×1 mm pieces and transferred to a 50 mL falcon tube containing DMEM medium with 0.5% BSA. The tissue pieces were washed by manually agitating the tube for 1 minute. The tissue pieces were allowed to settle to the bottom of the tube, then the supernatant was discarded. The macerated pieces were transferred to a 15 mL falcon tube with the dissociation medium and incubated at 37° C. for 60 minutes. Every 10 minutes the tube was vortexed for 1 minute to ensure the tissue was completely dissociated. The dissociation media was inactivated using DMEM with 10% SFB then manually agitating the tube for 1 minute. The dissociated cells were placed in a 40 μm cell strainer to remove the undigested tissue and placed into two 15 mL falcon tubes. The cells were centrifuged at 200×g for 10 minutes and the supernatant was discarded. The cells were washed three times by resuspending in DMEM solution with red blood cell lysing buffer followed by centrifuged at 200×g for 10 minutes. Then the cells were washed with DMEM solution and centrifuged at 200×g for 10 minutes. Following the last centrifugation, the cells were resuspended in DMEM, and the trypan blue test was used to determine the cell count and assess viability. DMEM with 10% fetal bovine serum (FBS) was treated with 10% charcoal-dextran and passed through a 0.2 μm filter. The cells were then plated in a 24-well tissue culture plate with a concentration of 1×10^6 viable cells per well and incubated at 37° C. for 24 hours. The following day, to starve the cells, the culture media was replaced with DMEM without FBS and left to incubate for another 24 hours.
Treatments: Based on the results from the pilot study, the selected concentration for Cetrorelix (cetrorelix acetate) was 300 μg. The cetrorelix was dissolved in trace levels of DMSO then dissolved in ultrapure water. To standardize the treatments, the nanomole concentration of each GnRH antagonist were matched with the cetrorelix nanomole concentration. The final concentration used for further experiments were: 300 μg for cetrorelix, 340 μg for Degarelix (Degarelix acetate), 300 ug for Abarelix (Abarelix acetate). Both degarelix and abarelix were dissolved ultrapure water. The equivalent Relugolix nanomole concentration was 130 μg which was dissolved in methanol. Treatment cells were preincubated for 60 minutes with either Cetrorelix, Degarelix, Relugolix or Abarelix. Following the preincubation, the cells were incubated for 30 minutes with either 1 nM or 10 nM of GnRH (Gonadorelin, Fertagyl, Merck Animal Health). GnRH doses were based on pituitary study by Paolicchi et al. 1999). The media were collected and centrifuged at 200×g for 10 minutes to remove the cells. Positive (Control) group was only treated with 1 nM and 10 nM of GnRH to determine the maximum LH secretion. LH concentrations in the culture medium was measured by a commercial bovine specific ELISA kit and reported as mIU/ml of medium.

[2] = system: GnRH-induced plasma LH levels and ovulation; assay: GnRH challenge in heifers pre-treated with GnRH antagonists: plasma LH and ovulation (Example 10); assay type: in vivo, cattle; conditions: for Plasma LH response to GnRH challenge: heifers pre-treated with antagonist 60 minutes before GnRH injection; for Ovulation (Yes/No) within 48 hr of GnRH treatment / Plasma LH concentration at 60 minute, group Mean / Plasma LH concentration at 120 minute, group Mean / Plasma LH concentration at −60 minute, group Mean / Plasma LH concentration at 0 minute, group Mean: heifers; for Ovulation (Yes/No) within 48 hr of GnRH treatment / Dominant follicle diameter (mm) 48 hr after GnRH Injection / Dominant follicle diameter (mm) at GnRH injection: 3 mg antagonist 60 min before GnRH; for Plasma LH concentration at 60 minute, group Mean / Plasma LH concentration at 120 minute, group Mean / Plasma LH concentration at 60 minute / Plasma LH concentration at 120 minute: after GnRH injection; for Plasma LH concentration at −60 minute, group Mean / Plasma LH concentration at −60 minute: time of 3 mg GnRH antagonist injection; for Plasma LH concentration at 0 minute, group Mean / Plasma LH concentration at 0 minute: time of GnRH injection; for Dominant follicle diameter (mm) 48 hr after GnRH Injection / Dominant follicle diameter (mm) at GnRH injection / Plasma LH concentration at 60 minute / Plasma LH concentration at 120 minute / Plasma LH concentration at −60 minute / Plasma LH concentration at 0 minute: individual heifers; for Plasma LH concentration at 60 minute / Plasma LH concentration at 120 minute / Plasma LH concentration at 0 minute: 3 mg antagonist at −60 min; for Plasma LH concentration at −60 minute: 60 mins before GnRH
Protocol: Methods: Pubertal heifers (n=10) with a functional CL were selected at the Federal University of Santa Maria. Heifers were administered an intramuscular (i/m) injection of prostaglandin F2a analog (PGF; Lutalyse 5 ml or Estrumate 2 ml) to induce CL regression. Heifers were randomly placed into 4 treatment groups at the time of PGF injection: Trt1 (n=2, 3 mg of Abarelix); Trt2 (n=2, 3 mg of Degarelix), Trt3 (n=2, 3 mg of Relugolix) and Trt 4 (n=4; Cetrorelix 3 mg). Heifers were treated with these GnRH antagonists 1.5 days (36 hr) after the PGF injection and the GnRH antagonist treatment time point was defined as −60 mins. Heifers were treated with GnRH ([…] of Fertagyl i/m) at 0 mins to induce ovulation. Jugular venipuncture plasma samples were collected every 60 minutes for 3 hours (from −60 min to 120 minutes, with t=0 min when GnRH is administered). Plasma samples were kept at 4C overnight and LH analysis was performed the next day using a bovine-specific ELISA commercial kit. Transrectal ultrasonography was conducted to the time of GnRH injection (Time 0 hr) and 2 days later (48 hr after GnRH injection) to record the size of dominant follicle and to detect ovulation after treatment.

[3] = target: GnRH receptor on bovine pituitary gonadotrophs (bovine) (UniProt P32236); assay: cell-based or functional assay
Chain of UniProt P32236 (P32236 whole entry): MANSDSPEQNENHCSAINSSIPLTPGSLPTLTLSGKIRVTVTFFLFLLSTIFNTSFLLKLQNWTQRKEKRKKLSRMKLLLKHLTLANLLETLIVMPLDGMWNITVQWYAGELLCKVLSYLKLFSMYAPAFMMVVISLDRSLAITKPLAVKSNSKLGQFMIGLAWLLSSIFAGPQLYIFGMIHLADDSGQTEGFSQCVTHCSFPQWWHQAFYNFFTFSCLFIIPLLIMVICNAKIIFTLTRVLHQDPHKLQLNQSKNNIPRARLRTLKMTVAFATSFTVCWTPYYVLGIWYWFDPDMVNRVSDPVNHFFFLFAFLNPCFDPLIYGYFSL

[4] = challenged with 1 nM GnRH 30 minutes after 60 minutes preincubation
[5] = challenged with 10 nM GnRH 30 minutes after 60 minutes preincubation

| Molecule | LH conc in medium [1, 4] [mIU/mL] | LH conc in medium [1, 5] [mIU/mL] | Plasma LH response to GnRH challenge [2] | Ovulation (Yes/No) within 48 hr of GnRH treatment [2] | Plasma LH concentration at 60 minute, group Mean [2] [mIU/ml] | Plasma LH concentration at 120 minute, group Mean [2] [mIU/ml] | Plasma LH concentration at −60 minute, group Mean [2] [mIU/ml] | Plasma LH concentration at 0 minute, group Mean [2] [mIU/ml] | Dominant follicle diameter (mm) 48 hr after GnRH Injection [2] | Dominant follicle diameter (mm) at GnRH injection [2] | Plasma LH concentration at 60 minute [2] | Plasma LH concentration at 120 minute [2] | Plasma LH concentration at −60 minute [2] | Plasma LH concentration at 0 minute [2] | LH conc (mIU/mL) in medium from bovine pituitary cells in vitro, preincubated 60 min with the antagonist, then challenged 30 min with 1 nM GnRH (control without antagonist: 2.01) [3] [mIU/mL] | LH conc (mIU/mL) in medium from bovine pituitary cells in vitro, preincubated 60 min with the antagonist, then challenged 30 min with 10 nM GnRH (control without antagonist: 2.49) [3] [mIU/mL] | further results |
| --- | --- | --- | --- | --- | --- | --- | --- | --- | --- | --- | --- | --- | --- | --- | --- | --- | --- |
| CC(=O)N[C@H](Cc1ccc2ccccc2c1)C(=O)N[C@H](Cc1ccc(Cl)cc1)C(=O)N[C@H](Cc1cccnc1)C(=O)N[C@@H](CO)C(=O)N(C)[C@@H](Cc1ccc(O)cc1)C(=O)N[C@H](CC(N)=O)C(=O)N[C@@H](CC(C)C)C(=O)N[C@@H](CCCCNC(C)C)C(=O)N1CCC[C@H]1C(=O)N[C@H](C)C(N)=O [Abarelix, N-acetyl-3-(2-naphthyl)-D-alanyl-4-chloro-D-phenylalanyl-3-(3-pyridyl)-D-alanyl-L-seryl-N-methyl-L-tyrosyl-D-asparagyl-L-leucyl-N6-isopropyl-L-lysyl-L-prolyl-D-alaninamide] (Ac-[d2Nal][dPhe(4-Cl)][d3Pal]S[NMeY][dN]L[Lys(iPr)]P[dA]-NH2) | 2.21 | 2.15 | did not register an increase in LH | No | 10.49 | 11.23 | 9.43 | 11.26 | 14 mm and 12 mm | 14.4 mm and 13.6 mm | 8.96 mIU/ml and 12.02 mIU/ml | 9.32 mIU/ml and 13.14 mIU/ml | 8.65 mIU/ml and 10.21 mIU/ml | 8.98 mIU/ml and 13.54 mIU/ml |  |  | Effect on LH suppression ([1]; 1 nM GnRH challenge): no effect; Effect on LH concentration ([1]; 10 nM challenge): modest decrease; Plasma LH response to GnRH challenge ([2]; listed as abarelix): block the GnRH-induced LH release; Ovulation (Yes/No) within 48 hr of GnRH treatment ([2]; listed as abarelix): prevent GnRH-induced ovulations |
| CC(=O)N[C@H](Cc1ccc2ccccc2c1)C(=O)N[C@H](Cc1ccc(Cl)cc1)C(=O)N[C@H](Cc1cccnc1)C(=O)N[C@@H](CO)C(=O)N[C@@H](Cc1ccc(NC(=O)[C@@H]2CC(=O)NC(=O)N2)cc1)C(=O)N[C@H](Cc1ccc(NC(N)=O)cc1)C(=O)N[C@@H](CC(C)C)C(=O)N[C@@H](CCCCNC(C)C)C(=O)N1CCC[C@H]1C(=O)N[C@H](C)C(N)=O [Degarelix, N-acetyl-3-(2-naphthyl)-D-alanyl-4-chloro-D-phenylalanyl-3-(3-pyridyl)-D-alanyl-L-seryl-4-((S)-dihydroorotamido)-L-phenylalanyl-4-ureido-D-phenylalanyl-L-leucyl-N6-isopropyl-L-lysyl-L-prolyl-D-alaninamide] (Ac-[d2Nal][dPhe(4-Cl)][d3Pal]S[Phe(4-NH2)](Dihydroorotyl(S))[dPhe(4-NHCONH2)]L[Lys(iPr)]P[dA]-NH2) | 1.33 | 1.21 | did not register an increase in LH | No | 8.60 | 8.62 | 8.14 | 8.89 | 12 mm and 13.2 mm | 14 mm and 15.1 mm | 4.87 mIU/ml and 12.32 mIU/ml | 5.25 mIU/ml and 11.98 mIU/ml | 5.54 mIU/ml and 10.74 mIU/ml | 5.37 mIU/ml and 12.41 mIU/ml |  |  | Plasma LH response to GnRH challenge ([2]; listed as degarelix): block the GnRH-induced LH release; Ovulation (Yes/No) within 48 hr of GnRH treatment ([2]; listed as degarelix): prevent GnRH-induced ovulations |
| CONC(=O)Nc1ccc(-c2sc3c(c2CN(C)C)c(=O)n(-c2ccc(OC)nn2)c(=O)n3Cc2c(F)cccc2F)cc1 [Relugolix, 1-[4-[1-[(2,6-difluorophenyl)methyl]-5-[(dimethylamino)methyl]-3-(6-methoxypyridazin-3-yl)-2,4-dioxothieno[2,3-d]pyrimidin-6-yl]phenyl]-3-methoxyurea] | 1.72 | 1.47 | did not register an increase in LH | No | 13.94 | 6.97 | 18.48 | 19.92 | 10 mm | 9.8 mm and 12.1 mm | 22.66 mIU/ml and 5.22 mIU/ml | 9.71 mIU/ml and 4.23 mIU/ml | 30.96 mIU/ml and 5.99 mIU/ml | 33.09 mIU/ml and 6.75 mIU/ml |  |  | Plasma LH response to GnRH challenge ([2]; listed as relugolix): block the GnRH-induced LH release; Ovulation (Yes/No) within 48 hr of GnRH treatment ([2]; listed as relugolix): prevent GnRH-induced ovulations |
| Abarelix (Abarelix acetate) (peptide) |  |  |  |  |  |  |  |  |  |  |  |  |  |  | 2.21 | 2.15 |  |
| Degarelix (Degarelix acetate) (peptide) |  |  |  |  |  |  |  |  |  |  |  |  |  |  | 1.33 | 1.21 |  |

Reference: patent US20260034192A1 (University of Saskatchewan, priority 2022, published 2026)
